Laboratory results: the supplement of paper PMC13207355

Tests used:
Conditions in all cases: exposure time: 72 h
[1] = system: E57 (patient-derived glioblastoma stem cells of mesenchymal subtype); assay: phenotypic distance (Euclidean, principal components) from DMSO controls (arbitrary units); higher = stronger morphological change
[2] = system: E28 (patient-derived glioblastoma stem cells of classical subtype); assay: as above
[3] = system: E21 (patient-derived glioblastoma stem cells of mesenchymal subtype); assay: as above
[4] = system: FT3469 (normal neural stem cell line); assay: as above
[5] = system: E34 (patient-derived glioblastoma stem cells of proneural subtype); assay: as above
[6] = system: E13 (patient-derived glioblastoma stem cells of classical subtype); assay: as above
[7] = system: E57; assay: surviving fraction (nuclei count normalised to DMSO); higher = more cells surviving (less toxic)
[8] = system: E28; assay: as above
[9] = system: E21; assay: as above
[10] = system: FT3469; assay: as above
[11] = system: E34; assay: as above
[12] = system: E13; assay: as above
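Throughout, for phenotypic distance (Euclidean, principal components) from DMSO controls: cell Painting imaging in 384-well plates, CellProfiler features reduced to at least 20 principal components, Euclidean distance versus same-plate DMSO vehicle wells (0.1% v/v), median over six images per well.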
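Throughout, for surviving fraction (nuclei count normalised to DMSO): nuclei counted by high-content imaging of Hoechst-stained cells in laminin-coated 384-well plates, relative to 0.1% DMSO vehicle wells, with staurosporine as cell-death control.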

O=C(/C=C/c1cccnc1)NCCCCC1CCN(C(=O)c2ccccc2)CC1 [Daporinad]
Conditions	phenotypic distance	surviving fraction
[1], 4.1 nM	2.92	–
[1], 12.3 nM	3.204	–
[1], 37 nM	3.213	–
[1], 111.1 nM	3.31	–
[1], 333.3 nM	3.19	–
[1], 1000 nM	3.44	–
[1], 3000 nM	3.491	–
[2], 4.1 nM	3.04	–
[2], 12.3 nM	3.29	–
[2], 37 nM	3.514	–
[2], 111.1 nM	3.26	–
[2], 333.3 nM	3.25	–
[2], 1000 nM	3.51	–
[2], 3000 nM	3.47	–
[3], 4.1 nM	0.674	–
[3], 12.3 nM	0.879	–
[3], 37 nM	1.12	–
[3], 111.1 nM	1.73	–
[3], 333.3 nM	2.59	–
[3], 1000 nM	2.69	–
[3], 3000 nM	2.46	–
[4], 4.1 nM	2.48	–
[4], 12.3 nM	2	–
[4], 37 nM	2.62	–
[4], 111.1 nM	2.52	–
[4], 333.3 nM	2.17	–
[4], 1000 nM	2.56	–
[4], 3000 nM	2.25	–
[5], 4.1 nM	1.25	–
[5], 12.3 nM	1.37	–
[5], 37 nM	1.45	–
[5], 111.1 nM	1.6	–
[5], 333.3 nM	1.35	–
[5], 1000 nM	2.32	–
[5], 3000 nM	1.37	–
[6], 4.1 nM	1.28	–
[6], 12.3 nM	2.03	–
[6], 37 nM	2.19	–
[6], 111.1 nM	2.19	–
[6], 333.3 nM	2.17	–
[6], 1000 nM	2.27	–
[6], 3000 nM	2.04	–
[7], 4.1 nM	–	0.731
[7], 12.3 nM	–	0.677
[7], 37 nM	–	0.693
[7], 111.1 nM	–	0.71
[7], 333.3 nM	–	0.668
[7], 1000 nM	–	0.562
[7], 3000 nM	–	0.621
[8], 4.1 nM	–	0.436
[8], 12.3 nM	–	0.459
[8], 37 nM	–	0.4196
[8], 111.1 nM	–	0.415
[8], 333.3 nM	–	0.423
[8], 1000 nM	–	0.351
[8], 3000 nM	–	0.379
[9], 4.1 nM	–	0.918
[9], 12.3 nM	–	0.977
[9], 37 nM	–	1.06
[9], 111.1 nM	–	0.924
[9], 333.3 nM	–	0.916
[9], 1000 nM	–	0.916
[9], 3000 nM	–	0.873
[10], 4.1 nM	–	0.8405
[10], 12.3 nM	–	0.956
[10], 37 nM	–	0.831
[10], 111.1 nM	–	0.93
[10], 333.3 nM	–	0.899
[10], 1000 nM	–	0.892
[10], 3000 nM	–	0.975
[11], 4.1 nM	–	1.02
[11], 12.3 nM	–	0.865
[11], 37 nM	–	0.916
[11], 111.1 nM	–	0.851
[11], 333.3 nM	–	0.922
[11], 1000 nM	–	0.8551
[11], 3000 nM	–	1.04
[12], 4.1 nM	–	0.897
[12], 12.3 nM	–	0.759
[12], 37 nM	–	0.712
[12], 111.1 nM	–	0.732
[12], 333.3 nM	–	0.779
[12], 1000 nM	–	0.738
[12], 3000 nM	–	0.728

Cc1cc(Nc2cc(CN3CCOCC3)c3nc(C)c(Cc4ccc(Cl)cc4F)n3n2)n[nH]1 [Gandotinib]
Conditions	phenotypic distance	surviving fraction
[1], 4.1 nM	0.653	–
[1], 12.3 nM	0.688	–
[1], 37 nM	1.33	–
[1], 111.1 nM	1.76	–
[1], 333.3 nM	2.18	–
[1], 1000 nM	2.93	–
[1], 3000 nM	5.26	–
[2], 4.1 nM	0.402	–
[2], 12.3 nM	0.536	–
[2], 37 nM	0.979	–
[2], 111.1 nM	1.01	–
[2], 333.3 nM	1.15	–
[2], 1000 nM	1.63	–
[2], 3000 nM	3.72	–
[3], 4.1 nM	1.3	–
[3], 12.3 nM	0.9953	–
[3], 37 nM	1.34	–
[3], 111.1 nM	1.92	–
[3], 333.3 nM	2.89	–
[3], 1000 nM	4.83	–
[3], 3000 nM	9.25	–
[4], 4.1 nM	0.44	–
[4], 12.3 nM	0.627	–
[4], 37 nM	0.479	–
[4], 111.1 nM	1.67	–
[4], 333.3 nM	0.785	–
[4], 1000 nM	0.863	–
[4], 3000 nM	2.05	–
[5], 4.1 nM	1.52	–
[5], 12.3 nM	2.31	–
[5], 37 nM	3.63	–
[5], 111.1 nM	5.44	–
[5], 333.3 nM	7.1	–
[5], 1000 nM	7.41	–
[5], 3000 nM	7.42	–
[6], 4.1 nM	0.676	–
[6], 12.3 nM	0.87	–
[6], 37 nM	0.987	–
[6], 111.1 nM	1.47	–
[6], 333.3 nM	1.57	–
[6], 1000 nM	1.9	–
[6], 3000 nM	2.7	–
[7], 4.1 nM	–	1.061
[7], 12.3 nM	–	0.946
[7], 37 nM	–	0.903
[7], 111.1 nM	–	0.781
[7], 333.3 nM	–	0.534
[7], 1000 nM	–	0.42
[7], 3000 nM	–	0.193
[8], 4.1 nM	–	1.03
[8], 12.3 nM	–	0.979
[8], 37 nM	–	1.06
[8], 111.1 nM	–	1.02
[8], 333.3 nM	–	0.865
[8], 1000 nM	–	0.673
[8], 3000 nM	–	0.335
[9], 4.1 nM	–	1.07
[9], 12.3 nM	–	1.02
[9], 37 nM	–	1.03
[9], 111.1 nM	–	0.918
[9], 333.3 nM	–	0.724
[9], 1000 nM	–	0.505
[9], 3000 nM	–	0.164
[10], 4.1 nM	–	0.931
[10], 12.3 nM	–	0.889
[10], 37 nM	–	0.969
[10], 111.1 nM	–	0.97
[10], 333.3 nM	–	0.9328
[10], 1000 nM	–	0.806
[10], 3000 nM	–	0.584
[11], 4.1 nM	–	0.94
[11], 12.3 nM	–	0.77
[11], 37 nM	–	0.6589
[11], 111.1 nM	–	0.511
[11], 333.3 nM	–	0.44
[11], 1000 nM	–	0.4
[11], 3000 nM	–	0.316
[12], 4.1 nM	–	1.02
[12], 12.3 nM	–	0.923
[12], 37 nM	–	0.933
[12], 111.1 nM	–	0.946
[12], 333.3 nM	–	0.818
[12], 1000 nM	–	0.791
[12], 3000 nM	–	0.626
